Source: PubChem BioAssay AID330 (DTP/NCI, 2004)
Several values for one entry are separate records, joined by “and”; a condition that tells them apart may be missing. Equal values may be shown once. Inconclusive results and toxic doses are left out.

Test system: P388 leukemia ip, CD2F1 mice, survival T/C
Test: NCI In Vivo Anticancer Drug Screen. Data for tumor model P388 Leukemia (intraperitoneal) in CD2F1 (CDF1) mice
Settings: endpoint: median survival time, higher = longer survival
How it was run: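 Mice carrying the transplanted tumor received test compound or vehicle. Survival was recorded in each group, and the value is the treated-group measurement divided by that of the vehicle-treated control group.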

[1] = dose: 50.0 mg/kg/injection, schedule: Q01DX005 (ip), vehicle: Klucel (hydroxypropylcellulose) (HPC)
[2] = dose: 100.0 mg/kg/injection, schedule: Q01DX005 (ip), vehicle: Klucel (hydroxypropylcellulose) (HPC)
[3] = dose: 50.0 mg/kg/injection, schedule: Q01DX009 (ip), vehicle: saline with Tween-80
[4] = dose: 100.0 mg/kg/injection, schedule: Q01DX009 (ip), vehicle: saline with Tween-80
[5] = dose: 200.0 mg/kg/injection, schedule: Q01DX009 (ip), vehicle: saline with Tween-80
[6] = dose: 60.0 mg/kg/injection, schedule: Q01DX005 (ip), vehicle: saline
[7] = dose: 120.0 mg/kg/injection, schedule: Q01DX005 (ip), vehicle: saline
[8] = dose: 240.0 mg/kg/injection, schedule: Q01DX005 (ip), vehicle: saline
[9] = dose: 25.0 mg/kg/injection, schedule: Q04DX003 (ip), vehicle: saline with Tween-80
[10] = dose: 100.0 mg/kg/injection, schedule: Q04DX002 (ip), vehicle: saline with Tween-80
[11] = dose: 100.0 mg/kg/injection, schedule: Q01DX001 (ip), vehicle: saline with Tween-80
[12] = dose: 12.5 mg/kg/injection, schedule: Q01DX009 (ip), vehicle: saline with Tween-80
[13] = dose: 25.0 mg/kg/injection, schedule: Q01DX009 (ip), vehicle: saline with Tween-80
[14] = dose: 200.0 mg/kg/injection, schedule: Q01DX005 (ip), vehicle: Klucel (hydroxypropylcellulose) (HPC)

With `O=C1OCc2c1cc1n(c2=O)Cc2cc3ccccc3nc2-1` the T/C (dose: 1.0 mg/kg/injection, schedule: Q01DX009 (ip), vehicle: saline with Tween-80) was 99 % of control and 114 % of control and 115 % of control and the T/C (dose: 2.0 mg/kg/injection, schedule: Q01DX009 (ip), vehicle: saline with Tween-80) was 105 % of control.

With `CN(C)c1ccc2nc3c(C(=O)O)cc(=O)c(O)c-3oc2c1` the T/C [1] was 103 % of control and the T/C [2] was 108 % of control.

For `c1ccc(CSc2nn[nH]n2)cc1`, the T/C (dose: 100.0 mg/kg/injection, schedule: Q04DX003 (ip), vehicle: Klucel (hydroxypropylcellulose) (HPC)) was 96 % of control, the T/C (dose: 200.0 mg/kg/injection, schedule: Q04DX003 (ip), vehicle: Klucel (hydroxypropylcellulose) (HPC)) was 102 % of control and the T/C (dose: 400.0 mg/kg/injection, schedule: Q04DX003 (ip), vehicle: Klucel (hydroxypropylcellulose) (HPC)) was 101 % of control.

In the case of `N#CC1C(=O)NC(=S)NC1c1ccc(C2CC(=O)NC(=S)N2)cc1` (centres undefined), the T/C [3] is reported as 104 % of control, the T/C [4] is reported as 105 % of control and the T/C [5] is reported as 106 % of control.

For `COc1ccc(C(=O)Cc2nc3nnc(NC(=O)Nc4ccc(Cl)cc4)n3nc2CC(=O)c2ccc(OC)cc2)cc1`, the T/C [6] was 97 % of control, the T/C [7] was 94 % of control and the T/C [8] was 95 % of control.

With `COc1nc2c(c(=O)n1C)C(=O)CN2C1OC(COC(C)=O)C(OC(C)=O)C(OC(C)=O)C1OC(C)=O` (centres undefined) the T/C (dose: 50.0 mg/kg/injection, schedule: Q01DX005 (ip), vehicle: saline with Tween-80) was 103 % of control, the T/C (dose: 100.0 mg/kg/injection, schedule: Q01DX005 (ip), vehicle: saline with Tween-80) was 108 % of control and the T/C (dose: 200.0 mg/kg/injection, schedule: Q01DX005 (ip), vehicle: saline with Tween-80) was 103 % of control.

With `COc1cc2c3c(c1O)-c1c(cccc1OC)CC3N(C)CC2` (centres undefined) the T/C (dose: 12.5 mg/kg/injection, schedule: Q04DX003 (ip), vehicle: saline with Tween-80) was 90 % of control and the T/C [9] was 100 % of control and 88 % of control.

In the case of `COC(=O)c1nc(=S)[nH]c(C(=O)OC)c1C(=O)/C=C/c1ccccc1`, the T/C (dose: 60.0 mg/kg/injection, schedule: Q01DX005 (ip), vehicle: saline + Tween-80 + alcohol) is reported as 104 % of control and the T/C (dose: 120.0 mg/kg/injection, schedule: Q01DX005 (ip), vehicle: saline + Tween-80 + alcohol) is reported as 100 % of control.

`CCOC(=O)C1C(=O)N2C(=O)C(NC(C)=O)=C(O)C2C1c1ccc(C)cc1` (centres undefined) was tested, and the T/C [10] was 100 % of control, the T/C (dose: 200.0 mg/kg/injection, schedule: Q04DX002 (ip), vehicle: saline with Tween-80) was 100 % of control and the T/C (dose: 400.0 mg/kg/injection, schedule: Q04DX002 (ip), vehicle: saline with Tween-80) was 104 % of control.

With `CNc1ccc(Nc2c3ccccc3nc3ccccc23)cc1` the T/C (dose: 6.25 mg/kg/injection, schedule: Q04DX002 (ip), vehicle: distilled water + Tween-80) was 109 % of control, the T/C (dose: 12.5 mg/kg/injection, schedule: Q04DX002 (ip), vehicle: distilled water + Tween-80) was 120 % of control and 124 % of control and the T/C (dose: 25.0 mg/kg/injection, schedule: Q04DX002 (ip), vehicle: distilled water + Tween-80) was 118 % of control. The T/C (dose: 50.0 mg/kg/injection, schedule: Q04DX002 (ip), vehicle: distilled water + Tween-80) was 160 % of control and the T/C (dose: 100.0 mg/kg/injection, schedule: Q04DX002 (ip), vehicle: distilled water + Tween-80) was 194 % of control and 232 % of control.

With `O=S(=O)(O)CCCS(=O)(=O)O` the T/C (dose: 50.0 mg/kg/injection, schedule: Q01DX009 (ip), vehicle: saline) was 98 % of control, the T/C (dose: 100.0 mg/kg/injection, schedule: Q01DX009 (ip), vehicle: saline) was 98 % of control and the T/C (dose: 200.0 mg/kg/injection, schedule: Q01DX009 (ip), vehicle: saline) was 101 % of control.

For `COC1C(c2cc(C(N)=O)n(-c3ccc([N+](=O)[O-])cc3)n2)OC2OC(C)(C)OC21` (centres undefined), the T/C [11] was 100 % of control, the T/C (dose: 200.0 mg/kg/injection, schedule: Q01DX001 (ip), vehicle: saline with Tween-80) was 96 % of control and the T/C (dose: 400.0 mg/kg/injection, schedule: Q01DX001 (ip), vehicle: saline with Tween-80) was 94 % of control.

`CC(C(=O)N1CCCC1)C(O)c1ccccc1` (centres undefined) was tested, and the T/C (dose: 50.0 mg/kg/injection, schedule: Q01DX005 (ip), vehicle: saline) was 105 % of control, the T/C (dose: 100.0 mg/kg/injection, schedule: Q01DX005 (ip), vehicle: saline) was 107 % of control and the T/C (dose: 200.0 mg/kg/injection, schedule: Q01DX005 (ip), vehicle: saline) was 98 % of control.

With `CCCCOn1nnc2ccccc21` the T/C [12] was 94 % of control, the T/C [13] was 103 % of control and the T/C [3] was 100 % of control and 97 % of control. The T/C [4] was 101 % of control and the T/C [5] was 113 % of control.

In the case of `CN(C)CCC(=O)/C=C/c1ccc(Cl)c(Cl)c1`, the T/C (dose: 6.25 mg/kg/injection, schedule: Q01DX009 (ip), vehicle: saline with Tween-80) is reported as 92 % of control, the T/C [12] is reported as 101 % of control and the T/C [13] is reported as 113 % of control. For the same molecule, the T/C [3] was 116 % of control.

In the case of `C[C@@H]1CCC2=C(CO)C(=O)O[C@@]23CC(C)(C)[C@H]2O[C@]123`, the T/C (dose: 2.25 mg/kg/injection, schedule: Q01DX005 (ip), vehicle: Klucel (hydroxypropylcellulose) (HPC)) is reported as 98 % of control, the T/C (dose: 4.5 mg/kg/injection, schedule: Q01DX005 (ip), vehicle: Klucel (hydroxypropylcellulose) (HPC)) is reported as 97 % of control and the T/C (dose: 9.0 mg/kg/injection, schedule: Q01DX005 (ip), vehicle: Klucel (hydroxypropylcellulose) (HPC)) is reported as 98 % of control. For the same molecule, the T/C (dose: 18.0 mg/kg/injection, schedule: Q01DX005 (ip), vehicle: Klucel (hydroxypropylcellulose) (HPC)) was 100 % of control and the T/C (dose: 36.0 mg/kg/injection, schedule: Q01DX005 (ip), vehicle: Klucel (hydroxypropylcellulose) (HPC)) was 103 % of control.

`COC(=O)C(Cc1c[nH]c2ccccc12)NC(=O)C(NC(=O)OC(C)(C)C)C(C)C` (centres undefined) was tested, and the T/C (dose: 50.0 mg/kg/injection, schedule: Q01DX009 (ip), vehicle: Klucel (hydroxypropylcellulose) (HPC)) was 101 % of control, the T/C (dose: 100.0 mg/kg/injection, schedule: Q01DX009 (ip), vehicle: Klucel (hydroxypropylcellulose) (HPC)) was 99 % of control and the T/C (dose: 200.0 mg/kg/injection, schedule: Q01DX009 (ip), vehicle: Klucel (hydroxypropylcellulose) (HPC)) was 97 % of control. For the same molecule, the T/C (dose: 400.0 mg/kg/injection, schedule: Q01DX009 (ip), vehicle: Klucel (hydroxypropylcellulose) (HPC)) was 90 % of control.

For `O=C(O)c1ccccc1-c1nc2ccccc2[nH]1`, the T/C [11] was 99 % of control.

With `CCCc1c(Cl)nc(Cl)nc1Cl` the T/C [13] was 104 % of control, the T/C [9] was 113 % of control and the T/C [3] was 118 % of control. For the same molecule, the T/C (dose: 50.0 mg/kg/injection, schedule: Q04DX003 (ip), vehicle: saline with Tween-80) was 121 % of control, the T/C (dose: 66.0 mg/kg/injection, schedule: Q01DX009 (ip), vehicle: saline with Tween-80) was 116 % of control and the T/C [4] was 100 % of control. The T/C (dose: 100.0 mg/kg/injection, schedule: Q04DX003 (ip), vehicle: saline with Tween-80) was 113 % of control.

With `CC(=Nc1c(C)noc1/C=C/c1ccccc1)NO` the T/C (dose: 12.5 mg/kg/injection, schedule: Q04DX002 (ip), vehicle: saline with Tween-80) was 104 % of control, the T/C (dose: 25.0 mg/kg/injection, schedule: Q04DX002 (ip), vehicle: saline with Tween-80) was 97 % of control and the T/C (dose: 50.0 mg/kg/injection, schedule: Q04DX002 (ip), vehicle: saline with Tween-80) was 95 % of control. The T/C [10] was 87 % of control.

With `COCc1cn[nH]n1` the T/C [6] was 100 % of control, the T/C [7] was 99 % of control and the T/C [8] was 104 % of control.

For `CCCCCCC1(/C=C/c2ccc(Cl)c(Cl)c2)OCC(C)(C)CO1`, the T/C [3] was 100 % of control, the T/C [4] was 89 % of control and the T/C [5] was 90 % of control.

In the case of `Cc1ccc(N=C(c2ccccc2)C2C(=O)c3ccccc3C2=O)cc1`, the T/C [1] is reported as 97 % of control, the T/C [2] is reported as 97 % of control and the T/C [14] is reported as 94 % of control.

In the case of `COc1cc(Br)c(/C=N/O)cc1OC`, the T/C [1] is reported as 104 % of control, the T/C [2] is reported as 95 % of control and the T/C [14] is reported as 91 % of control.

`CCO/C=N/NS(=O)(=O)c1ccc(C)cc1` was tested, and the T/C (dose: 6.25 mg/kg/injection, schedule: Q01DX009 (ip), vehicle: distilled water + Tween-80) was 108 % of control, the T/C (dose: 12.5 mg/kg/injection, schedule: Q01DX009 (ip), vehicle: distilled water + Tween-80) was 108 % of control and the T/C (dose: 12.5 mg/kg/injection, schedule: Q01DX009 (ip), vehicle: other) was 104 % of control. For the same molecule, the T/C [12] was 105 % of control, the T/C [13] was 98 % of control and the T/C (dose: 50.0 mg/kg/injection, schedule: Q01DX009 (ip), vehicle: other) was 104 % of control. For the same molecule, the T/C [3] was 96 % of control, the T/C (dose: 100.0 mg/kg/injection, schedule: Q01DX009 (ip), vehicle: other) was 98 % of control and the T/C [4] was 92 % of control. The T/C (dose: 200.0 mg/kg/injection, schedule: Q01DX009 (ip), vehicle: other) was 106 % of control.
